{"source": "patent US20050106305A1", "about": "“Beverage compositions comprising monatin and methods of making same” (Cargill, Inc., priority 2003, published 2005)", "test": "Stability of monatin at 80° C. and neutral pH, LC-MS", "assay_type": "physicochemical", "settings": "75 ppm", "description": "A 100 milliliter solution of 75 ppm monatin at pH 7 was used as a stock solution. The synthetic monatin sample contained approximately 96% of the 2R,4R/2S,4S enantiomeric pair and 4% of the 2R,4S/2S,4R enantiomeric pair. Samples were incubated at 80° C. and pH 7 for the duration of the experiment and samples were withdrawn at 0, 1, 2, 3, 4 hours and 1, 2, 4, 7, 14, 21 and 35 days. All experimental conditions were run in duplicate.\nSeparation and Quantification Using LC-MS Using Reverse Phase Chromatography—A response curve was established for both detected diastereomer peaks of the synthetic monatin. A range of 5-150 ppm was bracketed with the synthetic monatin standard dissolved in DI water. Separation of the two diastereomer peaks was accomplished using a 3.9×150 mm Novapak C18 (Waters Corporation) HPLC column. Ultraviolet-Visible (UV) and Mass Spectrometer (MS) detectors were used in series for detection and quantitation. Monatin and its lactone peak each have a UVmax at 279 nm that aided in precise detection. Quantification was done by acquiring Selected Ion Monitoring (SIM) scan of 293.3 m/z and 275.3 m/z in positive-ion electrospray mode.", "data": [{"smiles": "NC(CC(O)(Cc1c[nH]c2ccccc12)C(=O)O)C(=O)O", "note": "(racemic) [Monatin, 2-hydroxy-2-(indol-3-ylmethyl)-4-aminoglutaric acid]", "values": [{"measurement": "change in concentration of monatin or lactones thereof", "setting": "80° C. and pH 7, up to 35 days", "result": "no change in concentration"}, {"measurement": "degree of degradation of monatin", "setting": "80° C., pH 7, after 7-35 days", "result": "insignificant"}]}]}
